Measurements as given in the supplement of paper PMC11451515.

What was measured:
Details in all cases: 48 h
P12-Ichikawa [1] = test: AUC of viability dose-response curve (% viability x log10 dose units); higher = less sensitive
Method in brief: (§1)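 Medium-adapted leukemia cells in 1536-well plates, at 500 or 1000 cells/well, were incubated for 48 h at 37°C with library compounds in DMSO at 11 threefold doses from 47 μM to 0.79 nM. CellTiter-Glo One luminescence normalised per plate to DMSO and cell-free wells was fitted with a four-parameter log-logistic model over log10 doses. Area under the curve was integrated from this fit by trapezoidal rule, with curves beyond full viability scaled and failed quality-control curves removed.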

NOMO1 [2] = test: as above
Method in brief: as §1

SEM cells [3] = test: as above
Method in brief: as §1

P12-Ichikawa [4] = test: cell viability relative to DMSO control; higher = less cytotoxic
Method in brief: (§2)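 Library compounds in DMSO were pin-dosed in an 11-point threefold series (47 μM to 0.79 nM) onto leukemia cells in 1536-well plates (5 μl). Plates held 500 cells/well of NOMO1 or SEM or 1000 cells/well of P12-Ichikawa, each adapted for at least four passages in each medium. Luminescence was read with CellTiter-Glo One after 48 h at 37°C. Viability means the per-plate percentage relative to DMSO wells, using cell-free wells as background.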

NOMO1 [5] = test: as above
Method in brief: as §2

SEM cells [6] = test: as above
Method in brief: as §2

CCc1nc(-c2cccc(C)c2)c(-c2ccnc(NC(=O)c3ccccc3)c2)s1
AUC of viability dose-response curve
Details | NOMO1 [2] | P12-Ichikawa [1] | SEM cells [3]
HPLM + 10% dialyzed FBS | 461 | 449 | 463
RPMI 5 mM glucose + 10% FBS | 454 | 456 | 452
RPMI 5 mM glucose + 10% dialyzed FBS | 443 | 450 | 449

CCC\C1=C\C(=O)NC(=S)N1
AUC of viability dose-response curve
Details | HPLM + 10% dialyzed FBS | RPMI 5 mM glucose + 10% FBS | RPMI 5 mM glucose + 10% dialyzed FBS
NOMO1 [2] | 407 | 421 | 452
P12-Ichikawa [1] | 413 | 399 | 425

cell viability [%]
Details | NOMO1 [5] | P12-Ichikawa [4] | SEM cells [6]
HPLM + 10% dialyzed FBS, 0.000781 µM | 81.7 | 99.4 | 71.1
HPLM + 10% dialyzed FBS, 0.00234 µM | 104 | 107 | 74.2
HPLM + 10% dialyzed FBS, 0.00702 µM | 112 | 109 | 98.3
HPLM + 10% dialyzed FBS, 0.0211 µM | 131 | 111 | 30.6
HPLM + 10% dialyzed FBS, 0.0632 µM | 113 | 120 | 119
HPLM + 10% dialyzed FBS, 0.19 µM | 126 | 120 | 91.1
HPLM + 10% dialyzed FBS, 0.569 µM | 121 | 94.2 | 7.27
HPLM + 10% dialyzed FBS, 1.71 µM | 133 | 110 | 27.9
HPLM + 10% dialyzed FBS, 5.12 µM | 72.3 | 87.6 | 79.2
HPLM + 10% dialyzed FBS, 15.4 µM | 35 | 38.4 | 51.5
HPLM + 10% dialyzed FBS, 46.1 µM | 25.8 | 8.65 | 75.9
RPMI 5 mM glucose + 10% FBS, 0.000781 µM | 101 | 107 | 63.3
RPMI 5 mM glucose + 10% FBS, 0.00234 µM | 113 | 112 | 91.9
RPMI 5 mM glucose + 10% FBS, 0.00702 µM | 123 | 110 | 102
RPMI 5 mM glucose + 10% FBS, 0.0211 µM | 123 | 118 | 28
RPMI 5 mM glucose + 10% FBS, 0.0632 µM | 114 | 119 | 121
RPMI 5 mM glucose + 10% FBS, 0.19 µM | 109 | 112 | 124
RPMI 5 mM glucose + 10% FBS, 0.569 µM | 116 | 85 | 6.88
RPMI 5 mM glucose + 10% FBS, 1.71 µM | 119 | 104 | 22.9
RPMI 5 mM glucose + 10% FBS, 5.12 µM | 111 | 78.9 | 93.1
RPMI 5 mM glucose + 10% FBS, 15.4 µM | 29.4 | 40.8 | 52.2
RPMI 5 mM glucose + 10% FBS, 46.1 µM | 20.9 | 7.58 | 65
RPMI 5 mM glucose + 10% dialyzed FBS, 0.000781 µM | 103 | 102 | 69.2
RPMI 5 mM glucose + 10% dialyzed FBS, 0.00234 µM | 122 | 105 | 74.8
RPMI 5 mM glucose + 10% dialyzed FBS, 0.00702 µM | 115 | 103 | 91.7
RPMI 5 mM glucose + 10% dialyzed FBS, 0.0211 µM | 118 | 115 | 54.4
RPMI 5 mM glucose + 10% dialyzed FBS, 0.0632 µM | 109 | 118 | 89.8
RPMI 5 mM glucose + 10% dialyzed FBS, 0.19 µM | 109 | 119 | 125
RPMI 5 mM glucose + 10% dialyzed FBS, 0.569 µM | 113 | 99.7 | 6.6
RPMI 5 mM glucose + 10% dialyzed FBS, 1.71 µM | 123 | 113 | 20.3
RPMI 5 mM glucose + 10% dialyzed FBS, 5.12 µM | 99.7 | 83.9 | 92.4
RPMI 5 mM glucose + 10% dialyzed FBS, 15.4 µM | 100 | 68.3 | 43.1
RPMI 5 mM glucose + 10% dialyzed FBS, 46.1 µM | 31.7 | 9.42 | 50.8

O=C(CCN1CCN(C(=O)OCc2cc(Cl)cc(Cl)c2)CC1)c1ccc2[nH]c(=O)oc2c1
AUC of viability dose-response curve
Details | NOMO1 [2] | P12-Ichikawa [1] | SEM cells [3]
HPLM + 10% dialyzed FBS | 470 | 466 | 472
RPMI 5 mM glucose + 10% FBS | 431 | 454 | 465
RPMI 5 mM glucose + 10% dialyzed FBS | 448 | 459 | 469

NC/1=N/C(=O)N(/C=C1F)[C@H]2CS[C@H](CO)O2
AUC of viability dose-response curve
Details | HPLM + 10% dialyzed FBS | RPMI 5 mM glucose + 10% FBS | RPMI 5 mM glucose + 10% dialyzed FBS
NOMO1 [2] | 472 | 449 | 462
SEM cells [3] | 392 | 442 | 418

cell viability [%]
Details | HPLM + 10% dialyzed FBS | RPMI 5 mM glucose + 10% FBS | RPMI 5 mM glucose + 10% dialyzed FBS
NOMO1 [5], 0.000781 µM | – | 108 | –
NOMO1 [5], 0.00234 µM | – | 121 | –
NOMO1 [5], 0.00702 µM | – | 121 | –
NOMO1 [5], 0.0211 µM | – | 127 | –
NOMO1 [5], 0.0632 µM | – | 133 | –
NOMO1 [5], 0.19 µM | – | 157 | –
NOMO1 [5], 0.569 µM | – | 141 | –
NOMO1 [5], 1.71 µM | – | 139 | –
NOMO1 [5], 5.12 µM | – | 131 | –
NOMO1 [5], 15.4 µM | – | 151 | –
NOMO1 [5], 46.1 µM | – | 141 | –
SEM cells [6], 0.000781 µM | 83.9 | – | 101
SEM cells [6], 0.00234 µM | 107 | – | 118
SEM cells [6], 0.00702 µM | 107 | – | 115
SEM cells [6], 0.0211 µM | 115 | – | 152
SEM cells [6], 0.0632 µM | 124 | – | 126
SEM cells [6], 0.19 µM | 116 | – | 121
SEM cells [6], 0.569 µM | 123 | – | 144
SEM cells [6], 1.71 µM | 126 | – | 131
SEM cells [6], 5.12 µM | 143 | – | 137
SEM cells [6], 15.4 µM | 142 | – | 144
SEM cells [6], 46.1 µM | 148 | – | 153

COc1ccc(Nc2nccc(NCCO)n2)cc1
AUC of viability dose-response curve
Details | HPLM + 10% dialyzed FBS | RPMI 5 mM glucose + 10% FBS | RPMI 5 mM glucose + 10% dialyzed FBS
P12-Ichikawa [1] | 395 | 386 | 377
SEM cells [3] | 331 | 376 | 375

cell viability [%]
Details | NOMO1 [5] | P12-Ichikawa [4] | SEM cells [6]
HPLM + 10% dialyzed FBS, 0.000781 µM | 75.3 | 73.7 | 61.7
HPLM + 10% dialyzed FBS, 0.00234 µM | 86.5 | 83.2 | 67.9
HPLM + 10% dialyzed FBS, 0.00702 µM | 84.9 | 82.1 | 61.4
HPLM + 10% dialyzed FBS, 0.0211 µM | 97.5 | 84.8 | 75.8
HPLM + 10% dialyzed FBS, 0.0632 µM | 86 | 88.2 | 81.4
HPLM + 10% dialyzed FBS, 0.19 µM | 96.7 | 85.2 | 69.6
HPLM + 10% dialyzed FBS, 0.569 µM | 88.8 | 81.9 | 63.7
HPLM + 10% dialyzed FBS, 1.71 µM | 99.5 | 81.5 | 78.6
HPLM + 10% dialyzed FBS, 5.12 µM | 74.5 | 76.7 | 64
HPLM + 10% dialyzed FBS, 15.4 µM | 84.9 | 89.5 | 75.4
HPLM + 10% dialyzed FBS, 46.1 µM | 22.7 | 80.8 | 64.7
RPMI 5 mM glucose + 10% FBS, 0.000781 µM | 72.7 | 72 | 75.9
RPMI 5 mM glucose + 10% FBS, 0.00234 µM | 86.4 | 81.3 | 80.1
RPMI 5 mM glucose + 10% FBS, 0.00702 µM | 73.6 | 79.4 | 78
RPMI 5 mM glucose + 10% FBS, 0.0211 µM | 83.5 | 86.8 | 87.4
RPMI 5 mM glucose + 10% FBS, 0.0632 µM | 79.6 | 89.8 | 77.1
RPMI 5 mM glucose + 10% FBS, 0.19 µM | 79.8 | 81.5 | 79
RPMI 5 mM glucose + 10% FBS, 0.569 µM | 79.6 | 76.8 | 78.3
RPMI 5 mM glucose + 10% FBS, 1.71 µM | 79 | 73.6 | 85.1
RPMI 5 mM glucose + 10% FBS, 5.12 µM | 15.8 | 79 | 42.1
RPMI 5 mM glucose + 10% FBS, 15.4 µM | 81.3 | 85 | 91.5
RPMI 5 mM glucose + 10% FBS, 46.1 µM | 91.8 | 85.3 | 92.9
RPMI 5 mM glucose + 10% dialyzed FBS, 0.000781 µM | 61.9 | 69 | 64.5
RPMI 5 mM glucose + 10% dialyzed FBS, 0.00234 µM | 63.7 | 76.7 | 65.3
RPMI 5 mM glucose + 10% dialyzed FBS, 0.00702 µM | 69.4 | 78 | 73.3
RPMI 5 mM glucose + 10% dialyzed FBS, 0.0211 µM | 73.9 | 81.5 | 95
RPMI 5 mM glucose + 10% dialyzed FBS, 0.0632 µM | 73.8 | 78.9 | 91.8
RPMI 5 mM glucose + 10% dialyzed FBS, 0.19 µM | 76.9 | 81.7 | 78.6
RPMI 5 mM glucose + 10% dialyzed FBS, 0.569 µM | 68.9 | 79.9 | 81.4
RPMI 5 mM glucose + 10% dialyzed FBS, 1.71 µM | 75.5 | 81.9 | 74.7
RPMI 5 mM glucose + 10% dialyzed FBS, 5.12 µM | 23.6 | 78.4 | 74.1
RPMI 5 mM glucose + 10% dialyzed FBS, 15.4 µM | 76.9 | 79.9 | 92.5
RPMI 5 mM glucose + 10% dialyzed FBS, 46.1 µM | 76.2 | 77.9 | 68.2
